Laboratory results as given in patent US8846665B2, “6,7-dihydro-[1,3,4]thiadiazolo-[3,2-a][1,3]diazepin derivative and pharmaceutical composition containing the same as neuromuscular blocker or skeletal muscle relaxant, and method for the preparation” (King Saud University, priority 2011, dated 2014).
“And” between values parts separate entries of the source, which are not always exact repeats. Identical values can stand only once. Like-named read-outs stand apart in the source and are kept apart here.

Experiments:
[1] = tested on: rat tibialis electrically-induced twitches; test: Neuromuscular blocking activity in rats (sciatic nerve-tibialis twitch); type: in vivo; conditions: for Time for 100% Reversal / Time of onset of Reversal: after physostigmine; for ED50 (mmole/kg i.p.): dose producing 50% reduction of the rat tibialis twitch; for Duration of the Block / Time of 50% Block / Time of 90% Block / Time of onset of Block: rat tibialis twitches; for Effect of Physostigmine: reversal of block by physostigmine, single bolus
4-day old chicks = test: Neuromuscular blocking activity in chicks (head drop, type of paralysis); type: in vivo, chick
Experimental: Adult male Wistar rats (250 g) and 4-day old chicks (50 g) were used to conduct the neuromuscular blocking activity evaluation. They were housed in cages and kept at a temperature of 20±2° C. and a relative humidity of 55±5% with a light-dark cycle of 12 h. The animals were provided with Purina rodent's chow pellets supplied by Grain silos and Flour Mills Organization, Riyadh, Saudi Arabia and had both food and water ad libitum. The chicks were bought from the local market in Riyadh. Male Wistar rats (250 g) were randomly divided into various groups (N=4-8 animals). The animals were prepared following modifications of the reported method (Henning, R. Br. J. Pharmacol. 1993, 108, 717-720; Thesleff, S. et al, J. Pharmacol. Expt. Ther. 1954, 111, 99-118). Test drugs, standards or vehicles were administered intraperitoneal dissolved in dimethyl sulfoxide, or water as appropriate in various doses 1-100 mg/kg. In all experiments a control group was included and received intraperitoneal injections of the test compounds' vehicle. […] Also the dose that produced 90% of twitches depression was calculated. The response of the muscle to titanic stimulation was tested before administration of any drug and following 90% inhibition of the twitches.
Intraperitoneal administration of compounds of the formula 1 in single doses ranged from of 0.15-0.3 mmoles/kg, induced flaccid paralysis of the chicks within 1-15 minutes. The paralysis started with head movement and drop; then complete flaccid paralysis occurred. The onset of head drops were ranged from 15 sec-11 minutes whereas the flaccid paralysis ranged from 1-15 minutes following administration. Atracurium and Succinylcholine were used as positive controls. The mechanism of action of compounds of the formula 1 was similar but with more rapid onset of action than that of Atracurium; and almost similar to that of Succinylcholine. Representative example is shown in Example 4.
The effects of GS-53 and the standard drugs Succinylcholine and Atracurium were administered to 4-day old chicks to confirm the mode of the neuromuscular blockade (Buttle, G. et al, J. Pharm. Pharmacol. 1949, 1, 991-992; Thesleff, S. et al, J. Pharmacol. Expt. Ther. 1954, 111, 99-118; ELTahir, K. Guide to Drug Discovery, 2008, Riyadh, KSA). […] Intraperitoneal administration of GS-53 in single dose of 0.15 mmoles/kg, induced flaccid paralysis of the chicks within one minute. The paralysis started with head movement and drop; then complete flaccid paralysis occurred. The onset of head drop was 15 sec whereas the flaccid paralysis was one minute following administration. Atracurium and Succinylcholine were used as positive controls. The mechanism of action GS-53 seemed to be similar but with more rapid onset of action than that of Atracurium; and almost similar to that of Succinylcholine (Table 2).

[2] = Determination of the lethal dose (LD50); conditions: male, mouse, in vivo, ip, male mice, intraperitoneal
Experimental: The LD50 values of compounds of formula 1 were performed. Compounds were given intraperitoneally in doses ranging from 0.1-5 mmole/kg. […] All behavioral changes and death during the observation periods were recorded. The percentage of death at each dose level was then calculated, and the LD50 values were obtained (Ghosh, M., Fundamentals of Experimental Pharmacology, Scientific Book Agency, Calcutta. 1984, pp 153-158, 187-189). The Therapeutic Index of each compound was calculated following the determination of the effective neuromuscular blocking dose. Representative example is shown in Example 5.
Male mice were divided into various groups and GS-53 was administered in various doses ranging from 0.1-5 mmole/kg, intraperitoneal. […] All behavioral changes and death during the observation periods were recorded.

[3] = literature classification, cited from earlier work; for Onset of action: following bolus i.v. administration
[4] = single dose of 0.15 mmoles/kg i.p.

SMILES: COc1ccc(CC2c3cc(OC)c(OC)cc3CC[N+]2(C)CCC(=O)OCCCCCOC(=O)CC[N+]2(C)CCc3cc(OC)c(OC)cc3C2Cc2ccc(OC)c(OC)c2)cc1OC (centres unmarked) [Atracurium]
- Time for 100% Reversal [1]: 3 ± 0.4 min
- Time of onset of Reversal [1]: 2.0 min
- ED50 (mmole/kg i.p.) ([1]; i.p.): 0.016 mmol/kg
- Duration of the Block ([1]; i.p.): 30 ± 6 min
- Time of 50% Block ([1]; i.p.): 8 ± 0.2 min
- Time of 90% Block ([1]; i.p.): 12 ± 1.3 min
- Time of onset of Block ([1]; i.p.): 5 ± 0.8 min
- Effect of Physostigmine [1]: 100% Reversal
- ED50 (mmole/kg i.p.) (4-day old chicks; i.p.): 0.016 mmol/kg
- Mechanism of action (4-day old chicks; i.p.): Competitive
- Onset of head drop (4-day old chicks; i.p.): 5 ± 0.8 min
- Onset of muscle relaxation (4-day old chicks; i.p.): 10 ± 0.8 min
- Type of neuromuscular paralysis (4-day old chicks; i.p.): Flaccid

SMILES: O=C1CCCN2N=C(c3ccc(Br)cc3)SC2=N1 [GS-53, (E)-2-(4-bromophenyl)-6,7-dihydro-[1,3,4]thiadiazolo[3,2-a][1,3]diazepin-8(5H)-one]
- Time for 100% Reversal [1]: 6 ± 1.2 min
- Time of onset of Reversal [1]: 1.0 min
- ED50 (mmole/kg i.p.) ([1]; i.p.): 0.15 mmol/kg
- ED50 (mmole/kg i.p.), value in brackets in mg ([1]; i.p., rat tibialis twitch): 48.6 mg
- Duration of the Block ([1]; i.p.): 70 ± 12 min
- Time of 50% Block ([1]; i.p.): 7 ± 0.6 min
- Time of 90% Block ([1]; i.p.): 10 ± 3 min
- Time of onset of Block ([1]; i.p.): 3 ± 0.9 min
- Duration of action relative to Atracurium ([1]; rat, ratio of durations of block): 2.3 times
- Effect of Physostigmine [1]: completely reversed and 100% Reversal
- LD50 at 72 h ([2]; observation 72 hours, read-out: LD50): 195 mg/kg
- LD50 at 72 h ([2]; read-out: LD50 95% confidence limits): 185 to 205 mg/kg
- ED50 (mmole/kg i.p.) (4-day old chicks; i.p.): 0.15 mmol/kg
- ED50 (mmole/kg i.p.), value in brackets in mg (4-day old chicks; i.p.): 48.6 mg/kg
- Mechanism of action (4-day old chicks; i.p.): Competitive
- Onset of head drop (4-day old chicks; i.p.): 0.25 ± 0.1 min
- Onset of muscle relaxation (4-day old chicks; i.p.): 1 ± 0.08 min
- Type of neuromuscular paralysis (4-day old chicks; i.p.): Flaccid
- Onset of flaccid paralysis (4-day old chicks; [4]): one
- Onset of head drop (4-day old chicks; [4]): 0.25 min

SMILES: COc1cc2c(cc1OC)[C@H](c1cc(OC)c(OC)c(OC)c1)[N@@+](C)(CCCOC(=O)/C=C(\Cl)C(=O)OCCC[N@+]1(C)CCc3cc(OC)c(OC)cc3[C@H]1Cc1cc(OC)c(OC)c(OC)c1)CC2 [Gantacurium]
- Onset of action [3]: within a minute
- Duration [3]: 5 min

SMILES: C[N+](C)(C)CCOC(=O)CCC(=O)OCC[N+](C)(C)C [Succinylcholine]
- Onset of action [3]: within a minute
- Duration [3]: 5 min
- ED50 (mmole/kg i.p.) ([1]; i.p.): 0.03 mmol/kg
- Duration of the Block ([1]; i.p.): 20 ± 1.8 min
- Time of 50% Block ([1]; i.p.): 3 ± 0.1 min
- Time of 90% Block ([1]; i.p.): 5 ± 0.2 min
- Time of onset of Block ([1]; i.p.): 2 ± 0.1 min
- Effect of Physostigmine [1]: No Reversal
- ED50 (mmole/kg i.p.) (4-day old chicks; i.p.): 0.03 mmol/kg
- Mechanism of action (4-day old chicks; i.p.): Depolarizing
- Onset of muscle relaxation (4-day old chicks; i.p.): 0.5 ± 0.02 min
- Type of neuromuscular paralysis (4-day old chicks; i.p.): Spastic
